# Where two headings read alike, the source gives them in different places.
# Key:
# Type in all cases: in vivo
# [1] = tested on: Cochliobolus sativus; experiment: Spot Blotch of Wheat (COCHSA), foliar spray, percent disease control
# [2] = tested on: Pseudoperonospora cubensis; experiment: Cucumber Downy Mildew (PSPECU), foliar spray, percent disease control; settings: foliar, read-out: PSPECU percent control
# Protocol: The activity of the compounds as effective fungicides was determined by applying the compounds to plants and observing control of fungal disease. The compounds were formulated at 200 ppm in 10 vol. % acetone plus 90 vol. % Triton X water (deionized water 99.99 wt %+0.01 wt % Triton X100), giving a “formulated test compound.” In a few cases, compounds were formulated at 75 or 8.3 ppm rather than 200 ppm in 10 vol. % acetone plus 90 vol. % Triton X water (deionized water 99.99 wt. %+0.01 wt. % Triton X100), giving a “formulated test compound.” Formulated test compounds were applied to plants using a turn table sprayer fitted with two opposing air atomization nozzles which delivered approximately 1500 L/ha of spray volume. All plants were inoculated with spores of the fungus the day after treatment, then incubated in an environment conducive to disease development. Disease severity was evaluated 4 to 15 days later, depending on the disease and the speed of disease development. The following experiments were performed in the laboratory to determine the fungicidal efficacy of the compounds of the invention. Cucumber Downy Mildew (causal agent Pseudoperonospora cubensis; Bayer code […]): Cucumber plants (variety Bush Champion) were grown from seed in a soil-less peat-based potting mixture (Metromix) until the first true leaf was 20-80% expanded. Each pot contained 1 seedling. These plants were sprayed until wet with the formulated test compound. On the following day, the leaves were inoculated with an aqueous suspension of downy mildew sporangia and the plants were kept in high humidity for one day to permit sporangia to germinate and infect the leaf. The plants were then incubated in a growth chamber until disease developed on untreated control plants. […] The effectiveness of the test compounds at controlling disease when sprayed on leaves was determined by assessing the severity of disease on treated plants, then converting the severity to percent control based on the level of disease on untreated, inoculated plants. Data are the level (in percent) at which the given disease was controlled when the given compound was applied to the foliage of the plants at 200 ppm. In a few cases (noted in the table) the compound was applied to the plants at 75 ppm or 8.3 ppm.
# [3] = tested on: Colletotricum lagenarium; experiment: Cucumber Anthracnose (COLLLA), foliar spray, percent disease control; settings: foliar
# Protocol: The activity of the compounds as effective fungicides was determined by applying the compounds to plants and observing control of fungal disease. The compounds were formulated at 200 ppm in 10 vol. % acetone plus 90 vol. % Triton X water (deionized water 99.99 wt %+0.01 wt % Triton X100), giving a “formulated test compound.” In a few cases, compounds were formulated at 75 or 8.3 ppm rather than 200 ppm in 10 vol. % acetone plus 90 vol. % Triton X water (deionized water 99.99 wt. %+0.01 wt. % Triton X100), giving a “formulated test compound.” Formulated test compounds were applied to plants using a turn table sprayer fitted with two opposing air atomization nozzles which delivered approximately 1500 L/ha of spray volume. All plants were inoculated with spores of the fungus the day after treatment, then incubated in an environment conducive to disease development. Disease severity was evaluated 4 to 15 days later, depending on the disease and the speed of disease development. The following experiments were performed in the laboratory to determine the fungicidal efficacy of the compounds of the invention. Cucumber Anthracnose (causal agent Colletotricum lagenarium; Bayer code COLLLA): Cucumber plants (variety Bush Champion) were grown from seed in a soil-less peat-based potting mixture (Metromix) until the first true leaf was 20-80% expanded. Each pot contained 1 seedling. These plants were sprayed until wet with the formulated test compound. On the following day, the leaves were inoculated with an aqueous spore suspension of Colletotricum lagenarium and the plants were kept in high humidity for one day to permit spores to germinate and infect the leaf. The plants were then transferred to a growth chamber until disease developed on untreated control plants. […] The effectiveness of the test compounds at controlling disease when sprayed on leaves was determined by assessing the severity of disease on treated plants, then converting the severity to percent control based on the level of disease on untreated, inoculated plants. Data are the level (in percent) at which the given disease was controlled when the given compound was applied to the foliage of the plants at 200 ppm. In a few cases (noted in the table) the compound was applied to the plants at 75 ppm or 8.3 ppm.
# [4] = Bipolaris sorokiniana, foliar; read-out: COCHSA percent control
# [5] = Bipolaris sorokiniana, foliar, read-out: COCHSA percent control
SMILES,"pest or weed control at 200 µg/mL [1, 4] [%]",pest or weed control at 200 µg/mL [2] [%],pest or weed control at 200 µg/mL [3] [%],"pest or weed control at 200 µg/mL [1, 5] [%]"
Oc1cccc(OCCNc2ncnc3nccnc23)c1 [Compound 81],0 to 49,80 to 100,0 to 49,–
FC(F)(F)c1ccnc(Oc2ccc(OCCNc3ncnc4nccnc34)cc2)c1 [Compound 83],0 to 49,80 to 100,80 to 100,–
N#Cc1ccnc(Oc2ccc(OCCNc3ncnc4nccnc34)cc2)c1 [Compound 85],0 to 49,80 to 100,0 to 49,–
FC(F)(F)c1ccnc(Oc2cccc(OCCNc3ncnc4nccnc34)c2)c1 [Compound 86],0 to 49,80 to 100,0 to 49,–
FC(F)(F)c1ccc(Oc2cccc(OCCNc3ncnc4nccnc34)c2)nc1 [Compound 87],0 to 49,80 to 100,0 to 49,–
N#Cc1ccnc(Oc2cccc(OCCNc3ncnc4nccnc34)c2)c1 [Compound 88],0 to 49,80 to 100,0 to 49,–
Fc1nc(C(F)(F)F)c(F)c(Oc2ccc(CCNc3ncnc4nccnc34)cc2)c1F [Compound 89],0 to 49,80 to 100,0 to 49,–
Fc1nc(F)c(F)c(Oc2ccc(CCNc3ncnc4nccnc34)cc2)c1F [Compound 94],0 to 49,50 to 79,50 to 79,–
O=Cc1cc(C(F)(F)F)ccc1Oc1ccc(CCNc2ncnc3nccnc23)cc1 [Compound 100],0 to 49,80 to 100,0 to 49,–
O=Cc1cc(Cl)cnc1Oc1ccc(CCNc2ncnc3nccnc23)cc1 [Compound 102],0 to 49,80 to 100,0 to 49,–
FC(F)(F)c1cc(Oc2ccc(CCNc3ncnc4nccnc34)cc2)nc(C(F)(F)F)c1 [Compound 115],0 to 49,80 to 100,0 to 49,–
N#Cc1c(Cl)cncc1Oc1ccc(CCNc2ncnc3ncc(Cl)nc23)cc1 [Compound 119],0 to 49,0 to 49,0 to 49,–
"Fc1ccc(-c2ccc(CCNc3ncnc4nccnc34)cc2)cn1 [Compound 121, {2-[4-(6-Fluoropyridin-3-yl)-phenyl]-ethyl}-pteridin-4-yl-amine]",0 to 49,80 to 100,0 to 49,–
FC(F)(F)c1ccc(Oc2ccc(CCNc3ncnc4ncc(Cl)nc34)cc2)nc1 [Compound 124],0 to 49,80 to 100,0 to 49,–
N#Cc1cc2ccccc2nc1Oc1ccc(CCNc2ncnc3nccnc23)cc1 [Compound 127],0 to 49,50 to 79,0 to 49,–
"CC(C)(C)[Si](C)(C)Oc1ccc(CCNc2ncnc3nccnc23)cc1 [Compound 133, {2-[4-(tert-Butyldimethylsilanyloxy)-phenyl]-ethyl}-pteridin-4-yl-amine]",–,80 to 100,0 to 49,0 to 49
"CC(C)(C)OC(=O)N(CCc1ccc(O[Si](C)(C)C(C)(C)C)cc1)c1ncnc2nccnc12 [Compound 134, {2-[4-(tert-Butyldimethylsilanyloxy)-phenyl]-ethyl}-pteridin-4-yl-carbamic acid tert-butyl ester]",–,0 to 49,0 to 49,0 to 49
COC(=O)c1ccnc(Oc2ccc(CCNc3ncnc4nccnc34)cc2)c1 [Compound 135],0 to 49,80 to 100,0 to 49,–

SMILES,"pest or weed control at 200 µg/mL [1, 4] [%]",pest or weed control at 200 µg/mL [2] [%],pest or weed control at 200 µg/mL [3] [%],"pest or weed control at 200 µg/mL [1, 5] [%]"
CCc1ccc(Oc2ccc(CCN(C(=O)OC(C)(C)C)c3ncnc4nccnc34)cc2)cc1 [Compound 139],0 to 49,0 to 49,0 to 49,–
Cc1c(CCNc2ncnc3nccnc23)ccc(Oc2cncc(Cl)c2C#N)c1C [Compound 147],0 to 49,80 to 100,0 to 49,–
Cc1c(CCNc2ncnc3nccnc23)ccc(Oc2c(F)cnc(C(F)(F)F)c2F)c1C [Compound 149],0 to 49,80 to 100,0 to 49,–
COc1cc(C)c(CCNc2ncnc3nccnc23)cc1C [Compound 151],0 to 49,80 to 100,0 to 49,–
COc1ccc(CCNc2ncnc3nccnc23)cc1Cl [Compound 158],0 to 49,0 to 49,0 to 49,–
Fc1cccc(Oc2ccc(OCCNc3ncnc4nccnc34)cc2)n1 [Compound 159],0 to 49,80 to 100,0 to 49,–
FC(F)(F)c1cccnc1Oc1ccc(OCCNc2ncnc3nccnc23)cc1 [Compound 160],0 to 49,80 to 100,0 to 49,–
Cc1nc2ncnc(NCCc3ccc(O)cc3)c2nc1C [Compound 161],0 to 49,0 to 49,0 to 49,–
COc1cc(C(F)(F)F)cc(Oc2ccc(CCNc3ncnc4nccnc34)cc2C)n1 [Compound 167],0 to 49,80 to 100,0 to 49,–
COc1cc(C(F)(F)F)cc(Oc2ccc(OCCNc3ncnc4nccnc34)cc2)n1 [Compound 168],0 to 49,0 to 49,0 to 49,–
COc1cc(C(F)(F)F)cc(Oc2ccc(CCNc3ncnc4nccnc34)cc2)n1 [Compound 171],0 to 49,80 to 100,0 to 49,–
"CC(C)(C)c1cc[n+]([O-])c(Oc2ccc(CCNc3ncnc4nccnc34)cc2)c1 [Compound 172, {2-[4-(4-tert-Butyl-1-oxypyridin-2-yloxy)-phenyl]-ethyl}-pteridin-4-ylamine]",0 to 49,80 to 100,0 to 49,–
CC(C)OC(=O)c1ccnc(Oc2ccc(CCNc3ncnc4nccnc34)cc2)c1 [Compound 173],0 to 49,80 to 100,0 to 49,–
Cc1cc(CCNc2ncnc3nccnc23)ccc1O [Compound 174],0 to 49,0 to 49,0 to 49,–
Cc1c(O)ccc(CCNc2ncnc3nccnc23)c1C [Compound 175],0 to 49,0 to 49,0 to 49,–
COc1ccc(CCNc2ncnc3nccnc23)cc1F [Compound 176],0 to 49,0 to 49,0 to 49,–
Oc1ccc(CCNc2ncnc3nccnc23)cc1F [Compound 177],0 to 49,0 to 49,0 to 49,–
